# Tests used:
# α2β3γ2 GABAA receptors = target: T1, α2β3γ2 GABAA receptors (Rattus norvegicus, UniProt P18508+P23576); test: Two-electrode voltage clamp in Xenopus oocytes, α2β3γ2; type: cell-based; details: FIG. 1, Xenopus oocytes
# T1 construct: expressed in transfected cells; host or cells: Xenopus laevis oocytes injected with cRNA
# Method: (§1) 1. Effects of SH-053-S—CH3 8 on GABA(A) receptors were tested by two-electrode voltage clamp experiments in cRNA injected Xenopus oocytes that functionally expressed several subtype combinations of GABAA receptors. […] This oocyte profile is indicative of an anxiolytic agent devoid of sedative, ataxic and anterograde amnestic side effects.
# (§2) The methods were based on those published previously. See Li, X., et al., (2003) J. Med. Chem. 46: 5567-5570.
# (§3) Cloning of GABAA receptor subunits α1, β3 and γ2 into pCDM8 expression vectors (Invitrogen, CA) has been described elsewhere ([…]). GABAA receptor subunit α4 was cloned in an analogous way. cDNAs for subunits α2, α3 and α5 were gifts from P. Malherbe and were subcloned into pCI-vector (Li, et al., 2003). cDNA for subunit α6 was a gift from P. Seeburg and was subcloned into the vector pGEM-3Z (Promega). After linearizing the cDNA vectors with appropriate restriction endonucleases, capped transcripts were produced using the mMessage mMachine T7 transcription kit (Ambion, Tex.). The capped transcripts were polyadenylated using yeast poly(A) polymerase (USB, OH) and were diluted and stored in diethylpyrocarbonate-treated water at −70° C. (Li, et al., 2003). […]
# α3β3γ2 GABAA receptors = target: T2, α3β3γ2 GABAA receptors (Rattus norvegicus, UniProt P18508+P20236); test: Two-electrode voltage clamp in Xenopus oocytes, α3β3γ2; type: cell-based; details: FIG. 1, Xenopus oocytes
# T2 construct: expressed in transfected cells; host or cells: Xenopus laevis oocytes injected with cRNA
# Method: as §1, §2, §3
# T2 sequence (P20236 29-493): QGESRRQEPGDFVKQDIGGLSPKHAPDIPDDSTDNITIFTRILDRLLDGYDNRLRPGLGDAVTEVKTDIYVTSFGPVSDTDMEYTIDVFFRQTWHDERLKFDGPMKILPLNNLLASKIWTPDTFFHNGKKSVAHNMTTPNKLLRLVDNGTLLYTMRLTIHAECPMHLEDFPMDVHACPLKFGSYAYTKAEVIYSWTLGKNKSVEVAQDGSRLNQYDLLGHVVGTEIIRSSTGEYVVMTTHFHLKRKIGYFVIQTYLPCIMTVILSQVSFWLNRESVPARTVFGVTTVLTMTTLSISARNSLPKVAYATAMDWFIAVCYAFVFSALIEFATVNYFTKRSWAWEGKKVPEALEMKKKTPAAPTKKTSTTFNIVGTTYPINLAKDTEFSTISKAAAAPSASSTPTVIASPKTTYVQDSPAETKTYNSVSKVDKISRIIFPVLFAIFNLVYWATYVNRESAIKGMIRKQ
# T2 sequence (P63079 26-473 partner): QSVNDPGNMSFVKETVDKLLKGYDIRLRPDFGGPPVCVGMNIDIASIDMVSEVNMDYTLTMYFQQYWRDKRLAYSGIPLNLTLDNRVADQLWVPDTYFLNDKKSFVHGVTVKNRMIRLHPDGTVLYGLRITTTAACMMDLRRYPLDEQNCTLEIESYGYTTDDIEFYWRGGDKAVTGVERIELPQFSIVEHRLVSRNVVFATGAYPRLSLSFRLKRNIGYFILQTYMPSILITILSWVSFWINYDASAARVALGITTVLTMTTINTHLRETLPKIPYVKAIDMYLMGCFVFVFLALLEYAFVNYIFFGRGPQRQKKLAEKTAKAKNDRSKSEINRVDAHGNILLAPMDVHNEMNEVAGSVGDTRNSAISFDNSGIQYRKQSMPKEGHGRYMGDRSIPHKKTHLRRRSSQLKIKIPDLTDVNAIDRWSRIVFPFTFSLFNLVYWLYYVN
# T2 sequence (P18508 39-466): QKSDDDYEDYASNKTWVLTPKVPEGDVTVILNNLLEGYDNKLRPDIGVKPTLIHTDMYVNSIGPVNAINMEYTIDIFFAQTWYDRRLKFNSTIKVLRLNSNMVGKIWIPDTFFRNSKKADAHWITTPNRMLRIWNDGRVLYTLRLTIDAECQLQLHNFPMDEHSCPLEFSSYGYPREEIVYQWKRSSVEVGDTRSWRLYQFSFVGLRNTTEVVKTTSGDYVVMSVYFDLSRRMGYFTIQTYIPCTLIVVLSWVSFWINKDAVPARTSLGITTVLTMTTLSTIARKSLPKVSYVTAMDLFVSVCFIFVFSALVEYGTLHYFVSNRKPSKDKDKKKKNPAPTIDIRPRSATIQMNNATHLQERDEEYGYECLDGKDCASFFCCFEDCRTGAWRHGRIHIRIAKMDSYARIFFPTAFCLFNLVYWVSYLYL
# T1 sequence (P23576 29-451): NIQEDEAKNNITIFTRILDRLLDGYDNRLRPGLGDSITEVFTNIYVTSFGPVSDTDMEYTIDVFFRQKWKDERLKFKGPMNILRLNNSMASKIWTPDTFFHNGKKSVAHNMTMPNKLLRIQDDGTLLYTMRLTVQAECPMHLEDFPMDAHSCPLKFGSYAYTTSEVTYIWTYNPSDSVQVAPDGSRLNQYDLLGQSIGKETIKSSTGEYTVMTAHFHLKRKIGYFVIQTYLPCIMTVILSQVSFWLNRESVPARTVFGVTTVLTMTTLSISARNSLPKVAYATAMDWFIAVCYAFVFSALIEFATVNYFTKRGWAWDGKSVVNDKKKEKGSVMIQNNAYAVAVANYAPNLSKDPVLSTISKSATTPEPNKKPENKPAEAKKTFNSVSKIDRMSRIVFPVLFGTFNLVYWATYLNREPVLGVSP
# T1 sequence (P63079 26-473 partner): as the sequence (P63079 26-473 partner) above
# T1 sequence (P18508 39-466): as the sequence (P18508 39-466) above
smiles,measurement,setting,value
"C#Cc1ccc2c(c1)C(c1ccccc1)=NC(C)c1c(C(=O)OCC)ncn1-2 (stereo not drawn) [SH-053-S—CH3, 8-Ethynyl-4-methyl-6-phenyl-4H-2,5,10b-triaza-benzo[e]azulene-3-carboxylic acid ethyl ester]",efficacy at α2β3γ2 subtypes,α2β3γ2 GABAA receptors,agonist
same,efficacy at α3β3γ2 subtypes,α3β3γ2 GABAA receptors,agonist
same,melting point,,197 to 199 °C
